Measurements published in BindingDB's records for patent US12528814 (Nurix Therapeutics, 2026).

Biological target: T1, Interleukin-1 receptor-associated kinase 4 (Homo sapiens, UniProt Q9NWZ3)
T1 sequence (Q9NWZ3 whole entry): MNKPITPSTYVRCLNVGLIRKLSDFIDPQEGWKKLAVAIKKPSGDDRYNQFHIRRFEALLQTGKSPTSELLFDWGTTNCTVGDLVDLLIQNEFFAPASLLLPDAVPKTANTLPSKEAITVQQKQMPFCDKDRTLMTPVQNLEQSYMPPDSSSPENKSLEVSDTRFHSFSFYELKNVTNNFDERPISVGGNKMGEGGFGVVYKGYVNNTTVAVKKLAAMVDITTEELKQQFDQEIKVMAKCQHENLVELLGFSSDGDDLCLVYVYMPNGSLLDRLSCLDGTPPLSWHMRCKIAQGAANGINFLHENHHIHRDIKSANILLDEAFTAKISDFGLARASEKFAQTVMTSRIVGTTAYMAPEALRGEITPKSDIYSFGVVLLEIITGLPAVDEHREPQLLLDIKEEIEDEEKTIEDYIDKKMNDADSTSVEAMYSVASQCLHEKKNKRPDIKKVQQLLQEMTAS
Assay: IRAK4 Biochemical HTRF Kinase Assay
Description: The binding capacities of certain bifunctional compounds of Formula (I) were determined using the CisBio HTRF KinEASE STK S1 Kit (#62ST1PEB, contains 5× Kinase buffer, 1× Detection Buffer, anti-phospho-serine/threonine-cryptate, Streptavidin-XL665, and STK-S1), which measures the phosphorylation of a biotinylated peptide substrate by IRAK4, according to the manufacturer's protocol. Briefly, test compounds in DMSO were serially diluted into 384 Plus White Proxiplate (PerkinElmer, #6008280) using a Labcyte Echo 550 Liquid Handler, at a concentration of 50× final in 200 nL of 100% DMSO. 7.8 μl of kinase solution, containing 1.28 nM IRAK4 in 1× Kinase Buffer (supplemented with 3 mM MgCl2, 0.01% Triton X-100, and 1 mM DTT) was added to each compound containing well and incubated at ambient temperature for 30 min. 2 μl of a reaction solution containing 5 μM STK-S1, 10 mM ATP, and 10 mM MgCl2 were added to each well to a final volume of 10 μl. Assay controls include wells containing kinase with no compound (DMSO only) and wells containing no kinase and no compound (DMSO only). The reactions were allowed to proceed at ambient temperature for 90 minutes. […] The plates were incubated for 60 minutes at ambient temperature and then read on an Envision Multilabel Reader (PerkinElmer). […]

SMILES: CNc1cc(-c2ccc3cc(C#N)cnn23)ncc1-c1nnc(C23CCC(NC(=O)C4CCN(c5cccc6c5C(=O)N(C5CCC(=O)NC5=O)C6=O)CC4)(CC2)CC3)s1 (stereo unspecified) [US12528814, Example 136]
- IC50: 1.6 nM
